Measured values reported in publication PMC2234460 (The Journal of General Physiology, 2002).

Target: Shaker K+ channel (Shaker B) (Drosophila melanogaster, UniProt P08510, DEL6-46/F425G/K253C/T449F)
Assay: two-electrode voltage clamp in Xenopus oocytes
Format: cell-based

CC[N+](CC)(CC)CC [TEA]
Kd: 200 µM
